Experimental data published in publication PMC7331731, “Activity of vitamin D receptor agonists against dengue virus” (Scientific Reports, 2020).

Key:
[1] = test system: DENV infected monocytic U937 cells or hepatic Huh-7 cells; parameters: method as in PMID 22387385; settings: U937 or Huh-7 cells; cited from earlier work
DENV 2 [2] = assay: DENV 2 virus titer in supernatant by standard plaque assay (infected HEK293T/17 cells); type: cell-based, dengue virus; settings: for virus titer, treatment at 6 and 12 h post-infection: read at 24 h.p.i.; for EC50: HEK293T/17 cells, DENV 2 MOI 5, post-infection treatment, virus titer at 24 h by plaque assay
Description: Human embryonic kidney HEK293T/17 (ATCC No. CRL-11268) and human hepatocellular HepG2 (ATCC No. HB-8065) cells were cultured in complete medium, composed of Dulbecco’s modified Eagle medium (DMEM; Gibco BRL) supplemented with 10% heat-inactivated fetal bovine serum (FBS) at 37 °C with 5% CO2. Dengue virus serotype 2 (DENV 2) strain 16681, DENV 1 (strain 16007), DENV 3 (strain 16562), DENV 4 (strain 1036), ZIKV (strain SV0010/15) and JEV (strain BJ1) were all propagated in the Aedes albopictus cell line C6/36 (ATCC No. CRL-1660). Viral progenies in the supernatant were collected and centrifuged at 1,000g to remove cell debris. The virus stocks were kept at − 80 °C until used. Virus titers were determined by standard plaque assay on LLC-MK2 cells (ATCC No. CCL-7).
(§1) HEK293T/17 cells were cultured on 6-well plates until 70% confluence was reached under standard conditions. The cells were mock-infected or infected with DENV 2 at a multiplicity (MOI) of 5 for 2 h. After infection, the medium was removed and the infected cells were incubated with appropriate concentrations of the VDR agonists until 24 h.p.i., in parallel with DMSO treated control cells. Experiments were performed independently triplicate.
(§2) For time course experiments, under conditions of pre-infection treatment, HEK293T/17 cells were pre-treated with an appropriate concentration of VDR agonists for 1, 3 or 6 h before infection, followed by incubation in complete medium. For treatment post-infection, infected cells were treated with VDR agonists at 0, 1, 3, 6 and 12 h.p.i. The infected cells and supernatant for both pre- and post-treated samples were collected at 24 h.p.i. Experiments were performed independently triplicate.

CYP27B1 = assay: VDR-regulated gene expression by qRT-PCR, CYP27B1; type: cell-based, human; settings: 20 µM, 24 h, HEK293T/17, vs actin and 0.02% DMSO
Description: (§3) HEK293T/17 cells were incubated with either 10 µM of VDR agonists or 20 μM of commercial VDR agonist EB1089 (Tocris Cookson Ltd., Bristol, UK) for 24 h. Subsequently, the treated cell lysate was collected to determine the mRNA levels of the VDR gene as well as genes regulated by VDR. Total RNA was extracted and cDNA was synthesized as described above. Amplification was performed using specific primers, namely VDR-F: 5′-[…]-3′, VDR-R: 5′-AGTGGCGTCGGTTGTCCTT-3′, CYP27B1-F: 5′-[…]-3′, CYP27B1-R 5′-[…]-3′, CYP24A1-F: 5′-[…]-3′ and CYP24A1-R 5′-[…]-3′. The mRNA expression was normalized against β-actin and DMSO control-treated cells, respectively according to the following equation: ΔΔCt = ΔCt (gene)—ΔCt (DMSO). Experiments were performed independently in triplicate with triplicate real-time PCR.

VDR = assay: VDR-regulated gene expression by qRT-PCR, VDR; type: cell-based, human; settings: 20 µM, 24 h, HEK293T/17, vs actin and 0.02% DMSO
Description: as §3

CYP24A1 = assay: VDR-regulated gene expression by qRT-PCR, CYP24A1; type: cell-based, human; settings: 20 µM, 24 h, HEK293T/17, vs actin and 0.02% DMSO
Description: as §3

DENV 2 [3] = assay: Level of DENV 2 infection by flow cytometry (HEK293T/17 cells); type: cell-based, dengue virus; settings: for level of infection: HEK293T/17, vs 0.01% DMSO control; for level of infection, treatment at 6 and 12 h post-infection: read at 24 h.p.i.
Description: as §1, §2
HEK293T/17 cells were mock-infected or infected with DENV 2 at MOI 5 for 2 h, followed by treatment with the appropriate concentration of VDR agonists. At 24 hpi, the treated cells were harvested and Fc receptors were blocked with 10% goat serum (Gibco BRL, Gaithersburg, MD) for 30 min at 4 °C. The cells were washed with 1% BSA in 1X PBS/IFA (150 mM NaCl, 50 mM NaH2PO4, 50 m M Na2HPO4, pH to 7.4) and centrifuged at 6,000 g for 5 min. Then, the cells were fixed with 4% paraformaldehyde in 1X PBS/IFA at room temperature in the dark for 20 min, followed by the washing. Cell membrane permeabilization was performed using 0.2%Triton-X in 1X PBS/IFA for 10 min in the dark followed by overnight incubation with a 1:150 dilution of a pan-specific mouse monoclonal anti-dengue E protein antibody (HB114[44]). Cells were subsequently incubated for 1 h in the dark with a 1:40 dilution of a fluorescein isothiocyanate (FITC)-conjugated goat anti-mouse IgG antibody (KPL, Guilford, UK) with washing between each step 1% BSA/PBS-IFA. Finally, the cells were analyzed by flow cytometry on a BD FACSCalibur cytometer (Becton Dickinson, BD Biosciences, San Jose, CA) using the CELLQuest software. All experiments were performed independently in triplicate.

DENV 2 [4] = assay: Level of DENV 2 infection in HepG2 cells by flow cytometry; type: cell-based, dengue virus; settings: 10 μM, 24 h, DENV 2 MOI 5
Description: Given that HEK293T/17 cells are not representative of a DENV target tissue, the antiviral activity of the VDR agonists was evaluated in cells representative of a primary target cell. For this reason, HepG2 cells were infected with DENV 2, followed by treatment with 10 μM of the five effective VDR agonists (ZD-1, ZD-2, ZD-3, ZD-5, and ZD-6) for 24 h, after which the level of infection was determined by flow cytometry.
Figure 5 Antiviral activity of VDR agonists against DENV infection on HepG2 cells. HepG2 cells were mock-infected or infected with DENV 2 at MOI 5 for 2 h, followed by the treatment with 10 μM of ZD-1, ZD-2, ZD-3, ZD-5 and ZD-6 for 24 h.p.i. The treated cells were collected and level of infection determined by flow cytometry. p value; *< 0.05, **< 0.01, ***< 0.001 for significance. The experiment was performed independently in triplicate.
HEK293T/17 cells were mock-infected or infected with DENV 2 at MOI 5 for 2 h, followed by treatment with the appropriate concentration of VDR agonists. At 24 hpi, the treated cells were harvested and Fc receptors were blocked with 10% goat serum (Gibco BRL, Gaithersburg, MD) for 30 min at 4 °C. […] Finally, the cells were analyzed by flow cytometry on a BD FACSCalibur cytometer (Becton Dickinson, BD Biosciences, San Jose, CA) using the CELLQuest software. […]

DENV 3 (strain 16562) = assay: Virus titer by plaque assay, DENV 3; type: cell-based, dengue virus; settings: 10 μM, 24 h, HEK293T/17, MOI 10
Description: (§4) For viruses other than DENV 2, HEK293T/17 cells were infected with DENV 1 (strain 16007), DENV 3 (strain 16562), DENV 4 (strain 1036) and ZIKV (strain SV0010/15) at MOI 10 and with JEV (strain BJ1) at MOI 1. At 2 h.p.i., the virus was removed and the cells were incubated with 10 μM of VDR agonist (ZD-6) in complete medium for 24 h, after which the supernatant was collected, and the virus titer was determined by standard plaque assay. Experiments were performed independently triplicate.

[5] = test system: DENV 1, 3, 4, JEV and ZIKV; assay: Activity against other flaviviruses, plaque assay (all viruses together); type: cell-based; settings: 10 μM, 24 h, HEK293T/17, range over DENV 1, 3, 4, JEV, lowest for JEV and ZIKV
Description: as §4

DENV 4 (strain 1036) = assay: Virus titer by plaque assay, DENV 4; type: cell-based, dengue virus; settings: 10 μM, 24 h, HEK293T/17, MOI 10
Description: as §4

JEV (strain BJ1) = assay: Virus titer by plaque assay, JEV; type: cell-based; settings: 10 μM, 24 h, HEK293T/17, MOI 1
Description: as §4

ZIKV (strain SV0010/15) = assay: Virus titer by plaque assay, ZIKV; type: cell-based; settings: 10 μM, 24 h, HEK293T/17, MOI 10
Description: as §4

DENV 1 (strain 16007) = assay: Virus titer by plaque assay, DENV 1; type: cell-based, dengue virus; settings: 10 μM, 24 h, HEK293T/17, MOI 10
Description: as §4

[6] = 20 μM, 24 h.p.i., HEK293T/17, plaque assay
[7] = 10 µM, 24 h, HEK293T/17, plaque assay

| SMILES | CC50 (HEK293T/17 cells) [µM] | reduction of virus production (DENV 2 [2]; [7]) | EC50 (DENV 2 [2]) [µM] | level of infection (DENV 2 [3]; 10 µM, 24 h) | also measured |
| --- | --- | --- | --- | --- | --- |
| C=C1/C(=C\C=C2/CCC[C@]3(C)[C@@H]([C@H](C)CCCC(C)(C)O)CC[C@@H]23)C[C@@H](O)C[C@@H]1O [1,25(OH)2D3, 1,25-dihydroxyvitamin D3] |  |  |  |  | numbers of infected cells [1]: decreased numbers of infected cells |
| C=C1/C(=C\C=C2/CCC[C@]3(C)[C@@H]([C@H](C)/C=C/C=C/C(O)(CC)CC)CC[C@@H]23)C[C@@H](O)C[C@@H]1O [EB1089, reference compound] |  |  |  |  | reduction of viral production (DENV 2 [2]; [6]): approximately 2 Log10; viral yield (DENV 2 [2]; [6]): significantly reduced; transcriptional level of CYP27B1 (CYP27B1): significantly up regulated; transcriptional level of VDR (VDR): significantly up regulated; transcriptional level of CYP24A1 (CYP24A1): significantly up regulated; levels of infected cells (DENV 2 [3]; 20 μM, 24 h.p.i., HEK293T/17): significantly reduced |
| O=C1C2CCCN2C(c2ccco2)N1c1ccc([N+](=O)[O-])cc1 (stereo not drawn) [ZD-1] | 260 | 2-3 Log10 | 8.74 | highly significant reductions | level of infection in HepG2 cells (DENV 2 [4]): modest; virus titer, treatment at 6 and 12 h post-infection (DENV 2 [2]; 10 µM): significant reductions; level of infection, treatment at 6 and 12 h post-infection (DENV 2 [3]; 10 µM): significant reductions |
| COc1cc(C2N(c3ccc([N+](=O)[O-])cc3)C(=O)C3CCCN32)ccc1O (stereo not drawn) [ZD-2] | 314 | 2-3 Log10 | 11.8 | highly significant reductions |  |
| CSCCC(N)C(=O)Oc1ccc(C2N(c3ccc([N+](=O)[O-])cc3)C(=O)C3CCCN32)cc1.Cl (stereo not drawn) [ZD-3] | 394 |  | 7.47 | highly significant reductions |  |
| CSCCC(NC(=O)OC(C)(C)C)C(=O)Nc1ccc(C2N(c3ccc([N+](=O)[O-])cc3)C(=O)C3CCCN32)cc1 (stereo not drawn) [ZD-4] | 520 | over 1 Log10 | 33.5 |  | infection levels reduced by (DENV 2 [3]; 10 µM, 24 h, HEK293T/17): approximately 50% |
| COc1ccc(CC2N(c3ccc([N+](=O)[O-])cc3)C(=O)C3CCCN32)cc1OC (stereo not drawn) [ZD-5] | 439 | 2-3 Log10 | 8.46 | highly significant reductions | virus titer, treatment at 6 and 12 h post-infection (DENV 2 [2]; 10 µM): significant reductions; level of infection, treatment at 6 and 12 h post-infection (DENV 2 [3]; 10 µM): significant reductions |
| O=C1C2CCCN2C(c2ccc(O)cc2)N1c1ccc([N+](=O)[O-])cc1 (stereo not drawn) [ZD-6] | 277 | 2-3 Log10 | 11.3 | highly significant reductions | virus production, DENV 3 (DENV 3 (strain 16562)): significantly inhibited; magnitude of inhibition of virus production [5]: 1–3 Log10; virus production, DENV 4 (DENV 4 (strain 1036)): significantly inhibited; virus production, JEV (JEV (strain BJ1)): significantly inhibited; virus production, ZIKV (ZIKV (strain SV0010/15)): significantly inhibited; virus production, DENV 1 (DENV 1 (strain 16007)): significantly inhibited |
| CSCCC(NC(=O)OC(C)(C)C)C(=O)Oc1ccc(C2N(c3ccc([N+](=O)[O-])cc3)C(=O)C3CCCN32)cc1 (stereo not drawn) [ZD-20] | 908 |  | 152 | no significant reduction | effect on DENV 2 titer in the supernatant (DENV 2 [2]; [7]): no significant effect |
